According to patent publication US8232274B2, “Pyridazinone derivatives useful as glucan synthase inhibitors” (Albany Molecular Research, Inc., priority 2007, dated 2012):

What was measured:
[1] = biological target: T1, glucan synthase (Candida albicans, UniProt O13428); experiment: β(1,3) glucan synthase assay, C. albicans BWP17 membrane preparation (IC50); type: biochemical; conditions: in vitro fungal enzyme activity assay, read-out: IC50 (μg/mL) Candida albicans (converted)
T1 construct: glucan synthase sources (2 μL permeabilized PM503 cells, or 3 μL membrane preparations from either PM503, BWP17, or ND158); endogenous in cells; host or cells: C. albicans strain BWP17, 100,000 g membrane fraction
Description: (§1) β(1,3) Glucan Synthase Assay:
(§2) 2. Preparation of Membrane Fraction of Yeast Cells
(§3) The protocol was modified from Douglas et al. (Journal of Bacteriology, 176, 5686-5696, 1994). For the preparation of S. cerevisiae and C. albicans membrane fractions, 1 liter of YPD supplemented with 0.02 mg/mL adenine and 0.08 mg/mL uracil was inoculated with 10 mL starter culture of PM503 (OD600=4) or the C. albicans strain BWP17 (OD600=12) in the same medium and grown at 30° C. until OD600 reached about 1. A. fumigatus (stain ND158) membranes were prepared by first preparing a spore suspension from agar slants by adding 6 mL of sterile saline, 0.1% Tween-20 solution to each slant, and resuspending by pipetting and scraping. The spore suspensions were used to inoculate two 200 mL flasks containing Sabouraud dextrose broth media. Cultures were incubated at 37° C., 250 rpm for ˜8 hrs. All cells, S. cerevisiae, C. albicans or A. fumigatus were harvested by centrifugation at 5,300 g at 4° C. for 40 minutes. After washing with 100 mL of breakage buffer (0.1 M KPi, pH 7.0, 1 mM EDTA, 1 mM DTT), the cell pellet was resuspended in 50 ml ice-cold breakage buffer. The mixture was transferred to a bead-beater chamber packed in ice (BioSpec Products, Bartlesville, Okla.). To each 50 mL sample was added 50 g of acid-washed glass beads ([…], Sigma). Cells were disrupted using 12×20 second pulses with 2 min-cooling intervals. Cell debris was removed by centrifugation at 3,000 g for 20 minutes at 4° C., and the supernatant was collected and centrifuged at 100,000 g for 1 hour at 4° C. to pellet the membrane fraction. The pellet was resuspended in 5 mL of ice-cold breakage buffer containing 25% glycerol, homogenized with a Dounce tissue homogenizer and stored at −80° C. in small aliquots.
(§4) 3. Glucan Synthase Assay and Compound Screening
The assay was performed according to Mo et at (Journal of Biological Chemistry, 269, 31267-31274, 1994) and Taft et al. (The Journal of Antibiotics, 47, 1001-1009, 1994), in a 96-well Optiplate (PerkinElmer). To each well was added 3 μL 10× compound stock (in 100% DMSO), or 3 μL of 30 μg/mL caspofungin in 100% DMSO (as positive control), or 3 μL 100% DMSO (as negative control), followed by the addition of appropriate amount of glucan synthase sources (2 μL permeabilized PM503 cells, or 3 μL membrane preparations from either PM503, BWP17, or ND158). The reaction was initiated by adding 25 μL reaction buffer (0.6 mM UDP-Glucose 0.6 nCi [U-^14C]DUP-Glucose (327 mCi/mmol, Amersham Bioscience), 20 μM GTP-γ-S, 25 mM NaF, 7.5 mg/mL BSA, 8% glycerol in 75 mM Tris-HCl, pH 7.5). The plate was incubated on a shaker for 1.5 hour at room temperature before being quenched with 250 μL 1% TCA (Trichloroacetic Acid). The quenched reaction was mixed by pipetting, and immediately transferred to a 96-well filter plate (Glass fiber B on 0.65 μm hydrophilic durapore membrane, Millipore) pre-wetted with wash buffer (5% TCA, 60 mM NaPPi). The glucan product was retained on the filter membrane by applying vacuum to the plate using a MultiScreen Resist Vacuum Manifold (Millipore). The filter plate was further washed 4 times with 200 μL wash buffer. The plate was dried at 50° C. for 30 minutes. 100 μL of Microscint-0 (PerkinElmer) was added to each well, and plate was counted in a TopCount NXT plate reader (PerkinElmer).
Dose-response curves were plotted from inhibition data generated. IC50 was determined by fitting the CPM versus the Concentration of the test compound plot with the following equation (4-parameter logistic model, ID Business Solutions XLfit 4.2).

[2] = biological target: T2, glucan synthase (Saccharomyces cerevisiae, UniProt P38631); experiment: β(1,3) glucan synthase assay, S. cerevisiae PM503 permeabilized cells or membrane preparation (IC50); type: biochemical
T2 construct: glucan synthase sources (2 μL permeabilized PM503 cells, or 3 μL membrane preparations from either PM503, BWP17, or ND158); endogenous in cells; host or cells: S. cerevisiae strain PM503, permeabilized cells or 100,000 g membrane fraction
Description: as §1
1. Preparation of Permeabilized Saccharomyces cerevisiae Cells.
Permeabilization of yeast cells was performed according to Crotti et al. (Analytical Biochemistry, 292, 8-16, 2001) with some modifications. A 10 ml-starter culture of the S. cerevisiae strain in YPD medium (1% yeast extract, 2% bacto-peptone, 2% dextrose) with OD600=3-4 was used to inoculate 1 liter of YPD. The culture was grown at 30° C. until […]. Cells were collected by centrifugation (5,300 g for 15 min at 4° C.) and resuspended in buffer (40 mM EDTA, 100 mM β-mercaptoethanol) at 1 g of cell pellet/3.5 ml buffer. The cell suspension was shaken for 30 min at 30° C., followed by centrifugation at 12,000 g for 10 min at 4° C. The cell pellet was washed with 5 ml 0.8 M sorbitol and resuspended in 6.8 ml of 2.9 mM citric acid, 11.3 mM dibasic sodium phosphate, 1 mM EDTA, 0.8 M sorbitol, with constant shaking at 30)C for 30 min. After centrifugation at 12,000 g for […] at 4° C., the pellet was resuspended in 31.3 ml 50 mM Tris-HCl, pH 7.0, and incubated on ice for 5 min. The mixture was then centrifuged at 12,000 g for 10 min at 4 AC, and the pellet was resuspended in 1 ml of 50 mM Tris-HCl and 33% glycerol, pH 7.5. The permeabilized cell preparation was stored at […] in aliquots.
as §2, §3, §4
The assay was performed according to Mo et at (Journal of Biological Chemistry, 269, 31267-31274, 1994) and Taft et al. (The Journal of Antibiotics, 47, 1001-1009, 1994), in a 96-well Optiplate (PerkinElmer). To each well was added 3 μL 10× compound stock (in 100% DMSO), or 3 μL of 30 μg/mL caspofungin in 100% DMSO (as positive control), or 3 μL 100% DMSO (as negative control), followed by the addition of appropriate amount of glucan synthase sources (2 μL permeabilized PM503 cells, or 3 μL membrane preparations from either PM503, BWP17, or ND158). The reaction was initiated by adding 25 μL reaction buffer (0.6 mM UDP-Glucose 0.6 nCi [U-^14C]DUP-Glucose (327 mCi/mmol, Amersham Bioscience), 20 μM GTP-γ-S, 25 mM NaF, 7.5 mg/mL BSA, 8% glycerol in 75 mM Tris-HCl, pH 7.5). […]

T2 sequence (P06780 1-206): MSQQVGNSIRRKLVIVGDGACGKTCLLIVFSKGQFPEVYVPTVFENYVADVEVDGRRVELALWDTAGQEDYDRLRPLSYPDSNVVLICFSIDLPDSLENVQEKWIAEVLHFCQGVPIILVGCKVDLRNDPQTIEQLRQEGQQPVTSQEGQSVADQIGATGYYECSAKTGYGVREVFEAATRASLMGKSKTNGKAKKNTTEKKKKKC
T2 sequence (P38631 whole entry): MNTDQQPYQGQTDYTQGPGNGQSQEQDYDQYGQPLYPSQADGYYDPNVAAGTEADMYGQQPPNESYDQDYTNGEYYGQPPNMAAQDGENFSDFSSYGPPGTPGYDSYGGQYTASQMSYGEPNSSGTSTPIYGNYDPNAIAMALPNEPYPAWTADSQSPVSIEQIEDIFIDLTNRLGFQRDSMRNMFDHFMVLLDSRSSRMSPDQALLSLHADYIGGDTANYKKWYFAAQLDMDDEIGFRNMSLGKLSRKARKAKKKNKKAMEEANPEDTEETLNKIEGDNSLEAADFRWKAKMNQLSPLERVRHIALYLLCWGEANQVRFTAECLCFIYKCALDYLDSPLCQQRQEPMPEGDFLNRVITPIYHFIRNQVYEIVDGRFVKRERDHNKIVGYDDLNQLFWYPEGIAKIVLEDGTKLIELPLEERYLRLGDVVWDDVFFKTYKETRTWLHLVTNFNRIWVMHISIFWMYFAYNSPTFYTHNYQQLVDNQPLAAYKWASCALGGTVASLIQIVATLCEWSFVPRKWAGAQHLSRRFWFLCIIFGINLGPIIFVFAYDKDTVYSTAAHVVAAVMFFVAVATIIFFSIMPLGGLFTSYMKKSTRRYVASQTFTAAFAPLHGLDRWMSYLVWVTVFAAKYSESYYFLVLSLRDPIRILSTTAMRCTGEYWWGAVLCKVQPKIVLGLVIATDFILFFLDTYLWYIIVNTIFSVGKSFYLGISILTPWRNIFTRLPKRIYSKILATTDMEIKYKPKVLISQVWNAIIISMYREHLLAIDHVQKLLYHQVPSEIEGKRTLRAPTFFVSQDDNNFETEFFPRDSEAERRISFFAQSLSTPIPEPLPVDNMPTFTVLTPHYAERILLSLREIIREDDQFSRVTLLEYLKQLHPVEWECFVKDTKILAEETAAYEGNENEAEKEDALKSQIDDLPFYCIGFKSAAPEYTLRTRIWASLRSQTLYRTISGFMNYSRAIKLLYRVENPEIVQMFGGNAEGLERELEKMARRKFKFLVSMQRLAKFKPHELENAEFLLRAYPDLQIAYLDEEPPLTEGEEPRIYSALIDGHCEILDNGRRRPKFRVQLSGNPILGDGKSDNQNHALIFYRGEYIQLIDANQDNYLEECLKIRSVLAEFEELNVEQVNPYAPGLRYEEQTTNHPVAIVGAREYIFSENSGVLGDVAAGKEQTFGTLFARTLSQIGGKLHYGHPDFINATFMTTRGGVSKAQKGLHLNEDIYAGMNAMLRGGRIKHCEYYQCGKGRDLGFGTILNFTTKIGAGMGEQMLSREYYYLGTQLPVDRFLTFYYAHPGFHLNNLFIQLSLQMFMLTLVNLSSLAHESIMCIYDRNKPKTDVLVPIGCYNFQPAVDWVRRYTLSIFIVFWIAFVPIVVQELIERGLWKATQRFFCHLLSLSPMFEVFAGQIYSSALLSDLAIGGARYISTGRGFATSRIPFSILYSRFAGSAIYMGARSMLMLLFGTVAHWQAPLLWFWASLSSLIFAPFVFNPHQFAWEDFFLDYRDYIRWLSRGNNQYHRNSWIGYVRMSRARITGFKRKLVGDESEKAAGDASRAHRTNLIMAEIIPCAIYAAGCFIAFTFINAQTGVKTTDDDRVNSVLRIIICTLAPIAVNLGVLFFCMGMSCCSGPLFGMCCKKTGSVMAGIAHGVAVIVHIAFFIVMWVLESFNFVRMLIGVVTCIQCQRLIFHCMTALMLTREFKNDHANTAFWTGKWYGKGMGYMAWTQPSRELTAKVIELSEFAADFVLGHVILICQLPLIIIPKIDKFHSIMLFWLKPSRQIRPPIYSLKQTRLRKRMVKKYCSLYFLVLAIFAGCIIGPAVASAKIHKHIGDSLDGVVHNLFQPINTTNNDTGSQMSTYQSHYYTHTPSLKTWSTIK
T1 sequence (O13428 1-1897): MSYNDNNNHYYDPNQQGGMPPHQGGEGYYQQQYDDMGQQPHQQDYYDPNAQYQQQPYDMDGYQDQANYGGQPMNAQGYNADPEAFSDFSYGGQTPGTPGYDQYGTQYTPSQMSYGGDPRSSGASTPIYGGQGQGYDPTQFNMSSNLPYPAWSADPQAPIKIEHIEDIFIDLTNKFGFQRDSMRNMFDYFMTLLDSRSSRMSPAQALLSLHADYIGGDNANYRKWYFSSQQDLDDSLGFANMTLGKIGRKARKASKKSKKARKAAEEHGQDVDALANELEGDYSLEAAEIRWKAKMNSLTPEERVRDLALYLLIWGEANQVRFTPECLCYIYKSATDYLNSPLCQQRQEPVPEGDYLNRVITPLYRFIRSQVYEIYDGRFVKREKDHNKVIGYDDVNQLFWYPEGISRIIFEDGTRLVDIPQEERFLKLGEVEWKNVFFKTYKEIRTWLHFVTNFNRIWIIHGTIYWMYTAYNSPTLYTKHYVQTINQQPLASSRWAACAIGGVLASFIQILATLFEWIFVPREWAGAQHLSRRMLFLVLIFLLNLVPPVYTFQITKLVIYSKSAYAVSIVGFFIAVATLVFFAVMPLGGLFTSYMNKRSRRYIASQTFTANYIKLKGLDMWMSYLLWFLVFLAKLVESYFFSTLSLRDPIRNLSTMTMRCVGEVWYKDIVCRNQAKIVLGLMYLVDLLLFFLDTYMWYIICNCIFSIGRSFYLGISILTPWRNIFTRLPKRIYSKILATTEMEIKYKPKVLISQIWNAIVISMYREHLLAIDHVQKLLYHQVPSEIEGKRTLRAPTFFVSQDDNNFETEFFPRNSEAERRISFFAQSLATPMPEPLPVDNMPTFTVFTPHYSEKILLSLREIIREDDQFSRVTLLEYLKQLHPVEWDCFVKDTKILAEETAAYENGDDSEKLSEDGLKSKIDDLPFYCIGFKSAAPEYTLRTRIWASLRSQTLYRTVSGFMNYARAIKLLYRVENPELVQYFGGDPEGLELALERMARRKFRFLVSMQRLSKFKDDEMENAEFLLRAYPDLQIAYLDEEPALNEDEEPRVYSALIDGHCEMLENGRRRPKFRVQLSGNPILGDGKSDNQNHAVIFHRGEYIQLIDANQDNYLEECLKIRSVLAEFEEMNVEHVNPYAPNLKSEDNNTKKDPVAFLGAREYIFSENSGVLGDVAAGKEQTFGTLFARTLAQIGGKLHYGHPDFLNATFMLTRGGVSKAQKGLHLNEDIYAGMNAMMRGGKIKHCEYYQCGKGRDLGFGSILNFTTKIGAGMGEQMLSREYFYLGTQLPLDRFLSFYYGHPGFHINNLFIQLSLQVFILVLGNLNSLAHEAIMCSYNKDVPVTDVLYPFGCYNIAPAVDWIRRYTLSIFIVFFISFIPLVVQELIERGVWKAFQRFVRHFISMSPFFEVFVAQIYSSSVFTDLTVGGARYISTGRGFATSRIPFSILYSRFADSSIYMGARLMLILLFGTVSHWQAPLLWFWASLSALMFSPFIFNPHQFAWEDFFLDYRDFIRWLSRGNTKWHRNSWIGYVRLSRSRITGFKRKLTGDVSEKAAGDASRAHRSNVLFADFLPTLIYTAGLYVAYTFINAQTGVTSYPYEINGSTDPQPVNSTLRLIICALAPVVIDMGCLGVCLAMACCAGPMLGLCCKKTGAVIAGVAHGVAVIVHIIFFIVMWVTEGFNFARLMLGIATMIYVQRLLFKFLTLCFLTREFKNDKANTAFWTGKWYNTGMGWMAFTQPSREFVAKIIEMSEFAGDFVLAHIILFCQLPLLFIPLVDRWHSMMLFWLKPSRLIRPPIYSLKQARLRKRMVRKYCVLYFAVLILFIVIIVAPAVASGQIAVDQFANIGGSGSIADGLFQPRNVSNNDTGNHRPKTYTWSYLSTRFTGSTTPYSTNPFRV
T1 sequence (O42825 1-195 partner limits assumed): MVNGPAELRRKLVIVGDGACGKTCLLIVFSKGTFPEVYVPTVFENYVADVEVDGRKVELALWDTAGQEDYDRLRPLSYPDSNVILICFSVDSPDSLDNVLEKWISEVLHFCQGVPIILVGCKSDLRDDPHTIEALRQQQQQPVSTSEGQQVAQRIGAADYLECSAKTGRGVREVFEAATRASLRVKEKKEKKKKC

SMILES	IC50 [1] [nM]	IC50 [2] [nM]
CC1(COc2c(N3CCN(S(=O)(=O)Cc4ccccc4)CC3)cnn(-c3cccc(Cl)c3)c2=O)CC1 [1035Z]	56.7	75.6
O=c1c(OCC2(CF)CC2)c(N2CCN(S(=O)(=O)Cc3ccccc3)CC2)cnn1-c1cccc(Cl)c1 [1122Z]	54.8	54.8
O=c1c(OC2Cc3ccccc3CC2F)c(N2CCN(S(=O)(=O)CF)CC2)cnn1-c1cc(F)cc(F)c1 (stereo not shown) [1267Z]	633	199
O=c1c(OC2CCCC2)c(N2CCN(S(=O)(=O)Cc3ccccc3)CC2)cnn1-c1cccc(F)c1 [1402Z]	117	39
Nc1ccc(CS(=O)(=O)N2CCN(c3cnn(-c4cc(F)cc(F)c4)c(=O)c3OC3CCC(F)C3)CC2)cc1 (stereo not shown) [1529Z-6]	106	35.5
Nc1ccc(CS(=O)(=O)N2CCN(c3cnn(-c4cccc(Cl)c4)c(=O)c3OCc3ccccc3)CC2)cc1 [1529Z-19]	230	70.7
CC1(COc2c(N3CCN(S(=O)(=O)Cc4ccc(Br)cc4)CC3)cnn(-c3cc(F)cc(F)c3)c2=O)CC1 [1529Z-33]	32.8	16.4
CC1(COc2c(N3CCN(S(=O)(=O)Cc4cccc(N)c4)CC3)cnn(-c3cc(F)cc(F)c3)c2=O)CC1 [1529Z-40]	55	55
CC1(COc2c(N3CCN(S(=O)(=O)Cc4ccc(C#N)cc4)CC3)cnn(-c3cccc(Cl)c3)c2=O)CC1 [1529Z-56]	108	307
CC1CCC(Oc2c(N3CCN(S(=O)(=O)Cc4cccc(N)c4)CC3)cnn(-c3ccccc3)c2=O)C1 (stereo not shown) [1529Z-70]	153	134
Nc1ccc(CS(=O)(=O)N2CCN(c3cnn(-c4cccc(Cl)c4)c(=O)c3OCC3CCC3)CC2)cc1 [1529Z-73]	349	165
O=c1c(OCc2cccc(F)c2)c(N2CCN(S(=O)(=O)Cc3ccccc3)CC2)cnn1-c1cc(F)cc(F)c1 [1529Z-150]	175	70.1
CC(C)(C)COc1c(N2CCN(S(=O)(=O)Cc3cccc(N)c3)CC2)cnn(-c2cccc(Cl)c2)c1=O [1529Z-151]	165	128
CC(C)(C)COc1c(N2CCN(S(=O)(=O)Cc3ccc(N)cc3)CC2)cnn(-c2cc(F)cc(F)c2)c1=O [1529Z-174]	183	128
O=c1c(OCC2CC2(F)F)c(N2CCN(S(=O)(=O)Cc3ccccc3)CC2)cnn1-c1cc(F)cc(F)c1 (stereo not shown) [1529Z-180]	5.43	1.81
CC1CC1COc1c(N2CCN(S(=O)(=O)Cc3ccccc3)CC2)cnn(-c2cc(F)cc(F)c2)c1=O (stereo not shown) [1529Z-182]	18.8	1.88

SMILES	IC50 [1] [nM]	IC50 [2] [nM]
O=c1c(OCC2CC2)c(N2CCN(S(=O)(=O)Cc3ccccc3)CC2)cnn1-c1cccc(Cl)c1 [1529Z-185]	38.8	11.6
CC(C)(C)COc1c(N2CCN(S(=O)(=O)Cc3cccc(N)c3)CC2)cnn(-c2cc(F)cc(F)c2)c1=O [1529Z-190]	219	91.3
CC1(COc2c(N3CCN(S(=O)(=O)Cc4ccccc4)CC3)cnn(-c3cc(F)cc(F)c3)c2=O)CC1 [1529Z-191]	37.7	207
O=c1c(OC2CCCC2)c(N2CCN(S(=O)(=O)NCc3ccccc3)CC2)cnn1-c1cc(F)cc(F)c1 [1629Z]	91.6	36.7
COc1ccc(CNS(=O)(=O)N2CCN(c3cnn(-c4cc(F)cc(F)c4)c(=O)c3OCC3(C)CC3)CC2)cc1 [1633Z]	86.9	139
CC1(COc2c(N3CCN(S(=O)(=O)NCc4ccc(N)cc4)CC3)cnn(-c3cc(F)cc(F)c3)c2=O)CC1 [1634Z]	196	303
CC1(COc2c(N3CCN(S(=O)(=O)NCc4ccc(Cl)nc4)CC3)cnn(-c3cccc(Cl)c3)c2=O)CC1 [1675Z]	345	138
Cc1ccc(CNS(=O)(=O)N2CCN(c3cnn(-c4cccc(Cl)c4)c(=O)c3OCC3(C)CC3)CC2)cc1N [1683Z]	122	140
CC1(COc2c(N3CCN(S(=O)(=O)NCc4ccc(N)c(F)c4)CC3)cnn(-c3cccc(Cl)c3)c2=O)CC1 [1712Z]	104	139
Cc1ccc(CNS(=O)(=O)N2CCN(c3cnn(-c4cc(F)cc(F)c4)c(=O)c3OC3CCC(F)C3)CC2)cc1N (stereo not shown) [1715Z]	523	169
CC1(COc2c(N3CCN(S(=O)(=O)NCc4ccc(F)cc4)CC3)cnn(-c3cc(F)cc(F)c3)c2=O)CC1 [1734Z]	231	106
O=c1c(OCC2(CF)CC2)c(N2CCN(S(=O)(=O)NCc3ccc4ncoc4c3)CC2)cnn1-c1cccc(Cl)c1 [1743Z]	99.5	116
CC1CCC(Oc2c(N3CCN(S(=O)(=O)CCCF)CC3)cnn(-c3cccc(Cl)c3)c2=O)C1 (stereo not shown) [1761Z]	312	136
COc1ccc(CS(=O)(=O)N2CCN(c3cnn(-c4cc(F)cc(F)c4)c(=O)c3OCC3(C)CC3)CC2)cc1N [1864Z]	86.9	104
Cc1cc(CS(=O)(=O)N2CCN(c3cnn(-c4cccc(Cl)c4)c(=O)c3OCC3(C)CC3)CC2)ccc1N [1869Z]	143	53.8
Cc1cc(CS(=O)(=O)N2CCN(c3cnn(-c4cc(F)cc(F)c4)c(=O)c3OCC3(C)CC3)CC2)ccc1N [1870Z]	125	53.6
